Assay results as given in patent US7368115B2, “Method of enhancing neural stem cell proliferation, differentiation, and survival using pituitary adenylate cyclase activating polypeptide (PACAP)” (Stem Cell Therapeutics Inc., priority 2002, dated 2008).

Experiments:
[1] = system: E14 ganglionic eminence neural stem cells; experiment: Primary neurosphere number from dissociated E14 ganglionic eminences (neural stem cell survival); format: cell-based, mouse
Excerpt: FIG. 1. Pituitary adenylate cyclase-activating polypeptide (PACAP) enhanced neural stem cell survival in vitro. Embryonic day 14 ganglionic eminences (E14 GE) were dissociated and plated at 150 cells/ml in the indicated growth factor conditions. The number of neurospheres was counted after 10 days. Data are expressed relative to the number obtained with epidermal growth factor (EGF) alone (100%). PACAP increased the number of neurospheres obtained with either EGF or fibroblast growth factor (FGF)+heparan sulfate (HS). […] (* p<0.05, n=3).
Cell Culture: Primary embryonic neural stem cells were isolated from E14 ganglionic eminence as previously described (Reynolds and Weiss, 1992). Neurospheres were grown in the presence of EGF (20 ng/ml) or FGF-2 (20 ng/ml)+heparan sulfate (2 μg/ml) growth medium. Passaged neural stem cells were grown at a clonal density (150 cells/ml).
E14 GE were dissociated and plated at 150 cells/ml in EGF, EGF+PACAP, FGF+HS, or FGF+HS+PACAP. The number of neurospheres were counted after 10 days.

primary E14 neurospheres [2] = experiment: Secondary neurosphere number from dissociated primary neurospheres (self-renewal); format: cell-based, mouse; conditions: primary neurospheres grown with PACAP, replated in EGF or FGF+HS; normalized to growth without PACAP
Method: FIG. 2. PACAP increased neural stem cell self-renewal in vitro. Primary E14 neurospheres were grown in the indicated conditions, dissociated, and replated in the presence of either EGF or FGF+HS. Neurospheres were counted and data were normalized to either EGF or FGF+HS alone. PACAP increased the number of secondary neurospheres obtained with either EGF or FGF+HS. (* p<0.05, n=3).
Single Cell Dissociation Assay: Single neurospheres ([…]) were dissociated mechanically and then plated in a 96 well plate and incubated for 10 days in vitro in the presence of growth factors.
Primary E14 neurospheres were grown in the indicated conditions in FIG. 2, then dissociated and replated in the presence of either EGF or FGF+HS and the number of secondary neurospheres was counted. Data were normalized to the numbers of secondary neurospheres generated from primary neurospheres grown in the absence of PACAP.

primary E14 neurospheres [3] = experiment: In vitro neurogenesis: count of β-tubulin immunopositive neurons from neurospheres; format: cell-based, mouse
Method: FIG. 3. PACAP enhanced in vitro neurogenesis by neural stem cells. Primary E14 neurospheres were grown in the indicated conditions for seven days and then processed for immunocytochemistry to count the number of B-tubulin immunopositive neurons. Data were normalized to either EGF or FGF+HS alone (100%). PACAP increased the number of neurons in all conditions. (* p<0.01, n=3).
Differentiation of Neurospheres: Neurospheres were plated onto poly-L-ornithine coated coverslips in serum-free medium and subjected to immunocytochemistry after 5 days in vitro. The number of β-III tubulin-positive cells were counted.
Primary E14 neurospheres were grown in either EGF or FGF media in the presence or absence of PACAP for seven days, differentiated for five days in vitro in basal media, and then processed for immunocytochemistry to determine the number of β-tubulin immunopositive neurons. Data were normalized to those obtained with either EGF or FGF+HS alone (100%).

Akt = Akt phosphorylation in cultured neural stem cells (Western blot); format: cell-based; conditions: within 1 to 2 hours, data not shown
Method: (§1) To examine the possible mechanisms of PACAP action on neural stem cells, the effects of PACAP on Akt and STAT5 phosphorylation were investigated. Immunoblots were performed with anti-STAT5 (1:1000, Santa Cruz Biotechnology), anti-phospho-STAT5 (1:1000; Cell Signaling Technology), anti-Akt and anti-phospho-Akt (1:1000; Cell Signaling Technology). […] PACAP also stimulated STAT5 phosphorylation, which was previously shown to be important in neural stem cell neurogenesis. The effects of PACAP on Akt and STAT5 phosphorylation may be critical in mediating actions on neural stem cell survival and neurogenesis.

STAT5 = STAT5 phosphorylation in cultured neural stem cells (Western blot); format: cell-based; conditions: data not shown
Method: as §1

[4] = system: adult forebrain subventricular zone (SVZ); experiment: In vivo proliferation in the adult subventricular zone (BrdU+ cells) after infusion into the lateral ventricle; set-up: species or system CD-1 mice; conditions: human PACAP 165 μg/ml by osmotic minipump into right lateral ventricle for 6 days; relative to vehicle infused animals
Excerpt: FIG. 4. PACAP infusion stimulated increased proliferation in the adult subventricular zone (SVZ) in vivo. PACAP was infused into the lateral ventricles for six days with an osmotic minipump, followed by a series of BrdU injections. Brains were processed for immunocytochemistry. PACAP increased proliferation in the adult SVZ. (** p<0.05, n=4). […] To examine the actions of the peptide in vivo, CD-1 mice (6–7 weeks of age) were implanted with osmotic minipumps (Alzet 1007D) filled with either human PACAP (American Peptide Company, 165 μg/ml) or vehicle alone (0.9% saline containing 1 mg/ml mouse serum albumin). The cannulae were placed in the right lateral ventricle. Each animal was infused for 6 days and injected with BrdU every two hours for ten hours and killed 0.5 hours after the last injection. Brains were processed for immunohistochemistry as described previously (Shingo et al., 2001) and BrdU+cells were counted in serial sections of the SVZ.

[5] = Banks, 1993; cited from earlier work
[6] = system: embryonic rat cortical precursors; conditions: Lu and DiCicco-Bloom, 1997; cited from earlier work

Substance: PACAP: polypeptide hormone that activates adenylate cyclase; native mammalian form is 38 or 27 amino acids; human PACAP from American Peptide Company used in vivo
- number of primary neurospheres generated in response to EGF ([1]; EGF+PACAP vs EGF, 150 cells/ml, counted after 10 days, lesser extent than with FGF-2): also increased
- number of primary neurospheres generated in response to FGF-2 ([1]; FGF+HS+PACAP vs FGF+HS, 150 cells/ml, counted after 10 days, PACAP added at beginning of culture): significantly increased
- neurosphere number with delayed addition of PACAP ([1]; PACAP addition delayed until 5 days in vitro): did not increase
- number of secondary neurospheres generated by single primary neurospheres (primary E14 neurospheres [2]): significantly increased
- number of β-tubulin immunopositive neurons generated (primary E14 neurospheres [3]; EGF or FGF media with PACAP for seven days, differentiated five days in vitro, normalized to EGF or FGF+HS alone (100%)): significantly increased
- number of neurons generated with delayed PACAP addition (primary E14 neurospheres [3]; PACAP addition delayed until after five days in vitro (PACAP at 5 DIV)): an increase was observed
- phosphorylation of Akt (Akt): rapid increase
- STAT5 phosphorylation (STAT5): stimulated
- number of BrdU incorporating cells in the SVZ [4]: significantly increased
- crossing of the blood-brain-barrier [5]: known to cross the blood-brain-barrier
- mitosis [6]: can decrease mitosis
